# Reference: patent EP4775577A1, “RAS INHIBITOR” (Tyligand Bioscience (Shanghai) Limited, priority 2023, dated 2025)
# Where a name gives a salt, the structure may show the parent alone. Read-outs that look alike come from different tables or passages of the source.
# Tests used:
# [1] = tested on: KRAS G12V mutant NCI-H727 cells; assay: Proliferation inhibition of NCI-H727 cells, 3D CellTiter-Glo assay (Method B); assay type: cell-based, human; conditions: Method B, 3D culture with 0.65% methylcellulose, 5 days, CTG, read-out: NCI-H727 IC50/nM
# Method: NCI-H727 cells (Nanjing Kebai Biotechnology Co., Ltd., catalog number CBP60182, adherent, culture medium RPMI-1640+10%FBS (GIBCO, Cat#10091-148)) were cultured at 37°C, 5% CO2, and 95% humidity.
# 3D cell viability assay: Cells in the logarithmic growth phase were harvested and counted using a platelet counter. Cell viability was assessed using the trypan blue exclusion method to ensure a viability of over 90%. The 3D cell culture medium was prepared by adding 1% MC (methylcellulose, Sigma, Cat#M0512) to RPMI-1640 medium and 10% FBS. The cell concentration was adjusted to approximately 25,000 cells/mL using the 3D medium, and the methylcellulose (MC) content was set to 0.65%. Then, 80 µL of cell suspension was added to each 96-well clear, flat-bottomed, black-walled plate (Greiner, Cat# 655096). The cells in the 96-well plates were cultured overnight at 37°C and 5% CO2.
# Drug preparation for IC50 assay: A 5-fold drug solution was prepared using culture medium. 20 µL of the drug solution was added to each well of a 96-well plate seeded with cells to achieve a working concentration of up to 10 µM, with a 3× dilution, and 9 concentrations. 2 replicate wells for each drug concentration were set. The cells in the drug-treated 96-well plates were cultured at 37°C and 5% CO2 for additional 5 days, then CTG assay (CellTiter-Glo® Luminescent Cell Viability Assay (Promega, Cat#G7573)) were performed.
# The cell plate was equilibrated to room temperature for 30 minutes and the CTG reagent was thawed. 50 µL of CTG solution was added to each well for detection and the plate was shaken on an orbital shaker for 5 minutes to lyse the cells. The cell plate was then placed at room temperature for 25 minutes to stabilize the cryo-luminescence signal, and the cryo-luminescence value was read (EnVision® multi-plate reader, PerkinElmer#2105).
# (§1) Data was analyzed using GraphPad Prism software. The dose-response-inhibition equation was used to fit the data to obtain the dose-response curve, and the IC50 value (nM) was calculated accordingly. [formula]
# [2] = tested on: KRAS G12D mutant AGS cells; assay: Proliferation inhibition of AGS cells, CellTiter-Glo assay; assay type: cell-based, human; conditions: 3 days, CTG, read-out: AGS IC50/nM
# Method: AGS cells (Nanjing Kebai Biotechnology Co., Ltd., catalog number CBP60476, adherent, culture medium (F12K Nutrient Mixture+10% FBS (GIBCO, Cat#10091-148) were cultured at 37°C, 5% CO2, and 95% humidity at a density of 1500 cells/well. Cells in the logarithmic growth phase were harvested and counted using a Countstar automated cell counter based on the classic trypan blue staining method to ensure cell viability was above 90%. The cell concentration was adjusted, and 80 µL of cell suspension was added to each 96-well clear flat-bottomed, black-walled plate (Greiner, Cat# 655090). The cells in the 96-well plates were then cultured at 37°C and 5% CO2.
# Drug preparation for IC50 assay: A 5-fold drug solution was prepared using culture medium. 20 µL of the drug solution was added to each well of a 96-well plate seeded with cells to achieve a working concentration of up to 10 µM, with a 3 × dilution, and a total of 9 concentrations. 2 replicate wells for each drug concentration were set. The cells in the drug-treated 96-well plates were cultured at 37°C and 5% CO2 for additional 3 days and then CTG assay were performed.
# The cell plate was equilibrated to room temperature for 30 minutes and the CTG reagent (CellTiter-Glo® Luminescent Cell Viability Assay (Promega, Cat# G7573)) was thawed. 50 µL of CTG solution was added to each well and the plate was shaken on an orbital shaker for 2 minutes to lyse the cells. The cell plate was placed at room temperature for 10 minutes to stabilize the cryo-luminescence signal and the cryo-luminescence value was read (EnVision® Multifunctional microplate reader, PerkinElmer #2105).
# as §1
SMILES,"IC50 ([1]; Homo sapiens, NCI-H727, 120 h) [nM]","IC50 ([2]; Homo sapiens, AGS, 72 h) [nM]",IC50 [1] [nM],IC50 [2] [nM]
CCc1cc2c(N3Cc4cc(C(=O)N(C)C)nn4CCC3C)nc(OCC3(C)CN(CC)CCC3=CF)nc2c(Cl)c1-c1c(F)ccc2sc(N)c(C#N)c12 (stereo not drawn) [Example 193],2.1,< 1.5,–,–
CN1CCC(=CF)C(C)(COc2nc(N3CCC(C#N)C(O)C3)c3cc(C(F)(F)F)c(-c4cccc5sc(N)c(C#N)c45)c(F)c3n2)C1 (stereo not drawn) [Example 105],26.9,338,–,–
"CN1CC/C(=C\F)[C@](C)(COc2nc(N3CCOC[C@@](C)(O)C3)c3cc(Cl)c(-c4c(F)ccc5sc(N)c(C#N)c45)c(F)c3n2)C1 (atropisomer, axis not shown; (Ra)) [Example 85A, (Ra)-2-amino-4-(6-chloro-8-fluoro-2-(((S,E)-4-(fluoromethylene)-1,3-dimethylpiperidine-3-yl)methoxy)-4-((S)-6-hydroxy-6-methyl-1,4-oxazacycloheptane-4-yl)quinazoline-7-yl)-5-fluorobenzo[b]thiophene-3-carbonitrile formate·formic acid salt]",17.4,22.7,–,–
"CCN1CC/C(=C\F)[C@](C)(COc2nc(N3Cc4c(COC)c(C(=O)N(C)C)nn4CC[C@@H]3C)c3cc(C(F)(F)F)c(-c4ncc(F)c5sc(N)c(C#N)c45)c(F)c3n2)C1 (single isomer, unassigned) [Example 230A]",2.2,1.7,–,–
"CN1CC/C(=C\F)[C@](C)(COc2nc(N3CCCn4nc(C(=O)N(C)C)cc4C3)c3cc(Cl)c(-c4c(F)ccc5sc(N)c(C#N)c45)c(F)c3n2)C1 (atropisomer, axis not shown; (Sa)) [Example 93B, (Sa)-5-(7-(2-amino-3-cyano-5-fluorobenzo[b]thiophene-4-yl)-6-chloro-8-fluoro-2-(((S,E)-4-(fluoromethylene)-1,3-dimethylpiperidine-3-yl)methoxy)quinazoline-4-yl)-N,N-dimethyl-5,6,7,8-tetrahydro-4H-pyrazolo[1,5-a][1,4]diazepine-2-formamide·formate]",–,–,191,178
CCC1CCn2nc(C(=O)N(C)C)cc2CN1c1nc(OCC2(C)CN(CC)CCC2=CF)nc2c(F)c(-c3c(F)ccc4sc(N)c(C#N)c34)c(Cl)cc12 (stereo not drawn) [Example 250A],< 1.5,< 1.5,–,–
"CN1CC/C(=C\F)[C@](C)(COc2nc(N3CCCn4nc(C(=O)N(C)C)cc4C3)c3cc(/C=C\F)c(-c4cccc5sc(N)c(C#N)c45)c(F)c3n2)C1 (single isomer, unassigned) [Example 112B]",11,5.3,–,–
CCN1CCC(=CF)C(C)(COc2nc(N3Cc4cc(C(=O)N5CCCC5)nn4CCC3C)c3cc(Cl)c(-c4c(F)ccc5sc(N)c(C#N)c45)c(F)c3n2)C1 (stereo not drawn) [Example 262A],2.4,2.9,–,–
"[2H]C([2H])([2H])N1CC/C(=C\F)[C@](C)(COc2nc(N3Cc4cc(C(=O)N(C)CCOC)nn4CC[C@@H]3C)c3cc(CC)c(-c4c(F)ccc5sc(N)c(C#N)c45)c(F)c3n2)C1 (atropisomer, axis not shown) [Example 267A]",3.9,4.4,–,–
"[2H]C([2H])([2H])N1CC/C(=C\F)[C@](C)(COc2nc(N3CCCn4nc(C(=O)N(C)C)cc4C3)c3cc(C(F)(F)F)c(-c4c(F)ccc5sc(N)c(C#N)c45)c(F)c3n2)C1 [Example 68, 5-(7-(2-amino-3-cyano-5-fluorobenzo[b]thiophene-4-yl)-8-fluoro-2-(((S,E)-4-(fluoromethylene)-3-methyl-1-(methyl-d3)piperidine-3-yl)methoxy)-6-(trifluoromethyl)quinazoline-4-yl)-N,N-dimethyl-5,6,7,8-tetrahydro-4H-pyrazolo[1,5-a][1,4]diazepine-2-formamide]",6.4,1.9,–,–
CCN1CCC(=CF)C(C)(COc2nc(N3Cc4c(Cl)nnn4CCC3C)c3cc(Cl)c(-c4c(F)ccc5sc(N)c(C#N)c45)c(F)c3n2)C1 (stereo not drawn) [Example 259A],1.7,3.1,–,–
[2H]C([2H])([2H])N1CC[C@H](C(F)F)[C@](C)(COc2nc(N3CCOC[C@@](C)(O)C3)c3cc(Cl)c(-c4cccc5sc(N)c(C#N)c45)c(F)c3n2)C1 [Example 83],20.2,38.2,–,–
